This is an account of results in ChEMBL document CHEMBL1152310, “A Dimeric sesquiterpenoid from a Malaysian Meiogyne as a new inhibitor of Bcl-xL/BakBH3 domain peptide interaction” (J Nat Prod, 2009).

The subject of the experiment is KB. Put plainly: Cytotoxicity against human KB cells. Type of experiment: functional, cell-based.

As for `CC(C)=CCC[C@@H](C)[C@H]1C=C[C@@]2(C(=O)O)[C@H](CC(C)=C[C@@H]2/C=C(\C)C2CCC(C(=O)O)CC2)C1` (stereo partly specified) [MEIOGYNIN A], it took 4 µM to reach half-maximal inhibition (IC50).
